Data reported in patent US11066369B2, “N-(pyridin-2-yl)pyridine-sulfonamide derivatives and their use in the treatment of disease” (Novartis AG, priority 2016, dated 2021).
Where a name gives a salt, the structure may show the parent alone.

Legend:
[1] = molecular target: T1, horseradish peroxidase (HRP) tagged delF508-CFTR (Homo sapiens, UniProt P13569, DEL508-508); experiment: Measurement of delF508-CFTR-HRP surface expression in CFBE41o- cells; format: cell-based; details: delF508-CFTR-HRP surface expression, CFBE41o- cells; for Emax: read-out: DelF508-CFTR-HRP Amax %; for EC50: read-out: DelF508-CFTR-HRP EC50;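 for DelF508-CFTR-HRP Amax %: percent efficacy relative to reference corrector lumacaftor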
T1 construct: expressed in transfected cells
T1 sequence (P13569 with tags, fused parts or gaps DEL508-508): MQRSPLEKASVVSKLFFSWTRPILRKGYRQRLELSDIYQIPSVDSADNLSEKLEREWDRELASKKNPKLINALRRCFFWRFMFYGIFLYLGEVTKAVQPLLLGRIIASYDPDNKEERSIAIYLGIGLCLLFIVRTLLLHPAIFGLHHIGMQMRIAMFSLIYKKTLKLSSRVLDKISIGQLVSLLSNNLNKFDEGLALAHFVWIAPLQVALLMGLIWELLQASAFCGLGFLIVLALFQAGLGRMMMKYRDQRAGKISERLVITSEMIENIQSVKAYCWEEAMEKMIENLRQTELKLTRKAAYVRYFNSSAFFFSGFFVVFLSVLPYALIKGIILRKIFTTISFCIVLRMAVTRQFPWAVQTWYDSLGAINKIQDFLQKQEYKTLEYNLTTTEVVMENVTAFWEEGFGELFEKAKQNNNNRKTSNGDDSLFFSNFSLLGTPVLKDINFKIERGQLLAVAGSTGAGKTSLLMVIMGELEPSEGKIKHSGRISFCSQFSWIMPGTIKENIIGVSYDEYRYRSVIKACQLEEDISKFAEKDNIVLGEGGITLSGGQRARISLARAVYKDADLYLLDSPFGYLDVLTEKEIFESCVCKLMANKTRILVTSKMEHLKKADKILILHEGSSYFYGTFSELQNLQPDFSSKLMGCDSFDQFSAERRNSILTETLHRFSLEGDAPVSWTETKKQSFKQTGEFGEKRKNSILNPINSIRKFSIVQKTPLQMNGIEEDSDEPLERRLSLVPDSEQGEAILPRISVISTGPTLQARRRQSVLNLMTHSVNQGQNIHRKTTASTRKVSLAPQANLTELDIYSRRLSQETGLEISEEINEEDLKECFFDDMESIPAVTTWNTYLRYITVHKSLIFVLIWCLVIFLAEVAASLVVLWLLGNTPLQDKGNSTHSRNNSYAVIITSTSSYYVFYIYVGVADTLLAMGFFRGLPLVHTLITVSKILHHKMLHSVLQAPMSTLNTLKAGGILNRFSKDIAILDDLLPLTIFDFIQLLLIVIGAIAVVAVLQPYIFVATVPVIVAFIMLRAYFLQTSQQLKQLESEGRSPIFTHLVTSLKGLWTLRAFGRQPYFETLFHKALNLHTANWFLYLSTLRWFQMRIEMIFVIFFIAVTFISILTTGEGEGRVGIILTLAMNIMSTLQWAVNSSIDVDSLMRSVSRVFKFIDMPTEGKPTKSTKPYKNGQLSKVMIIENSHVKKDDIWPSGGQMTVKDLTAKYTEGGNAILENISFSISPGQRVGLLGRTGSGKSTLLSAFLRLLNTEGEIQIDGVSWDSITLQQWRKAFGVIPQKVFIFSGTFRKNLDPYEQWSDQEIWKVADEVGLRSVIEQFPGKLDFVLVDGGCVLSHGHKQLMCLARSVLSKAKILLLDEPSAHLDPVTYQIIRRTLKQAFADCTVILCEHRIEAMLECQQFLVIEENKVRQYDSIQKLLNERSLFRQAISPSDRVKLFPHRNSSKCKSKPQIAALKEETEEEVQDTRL
Outline: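 Surface-trafficked delF508-CFTR detected via extracellular HRP tag, read as luminescence from a membrane-impermeant substrate in CFBE41o- cells. Cells pre-induced 48h with 500 ng/mL doxycycline, then exposed 24h at 37° C to a 10-point, 3-fold dilution series from 10 μM (DMSO ≤0.5%). Triplicate dose-responses fitted logistically for EC50 after per-plate normalization; fold change versus reference compound.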

[2] = molecular target: T2, delF508-CFTR (Homo sapiens, UniProt P13569, DEL508-508); experiment: Measurement of delF508-CFTR functional activity in primary human bronchial epithelial cells (HBECs) using Multi-Transepithelial Clamp Circuit (MTECC-24) assay; format: cell-based; details: primary CF HBECs; for MTECC24 CFHBEC- Amax %: test compound added 24h before assay plus potentiator, relative to reference combination (2 μM corrector + 0.5 μM potentiator); for EC50: test compound added 24h before assay, in the presence of potentiator, mean of at least two replicates, read-out: MTECC24 CFHBEC- EC50
T2 construct: functional activity of the CFTR channel (Chloride ion transport) in patient derived primary human bronchial epithelial cells; host or cells: patient-derived primary human bronchial epithelial cells (delF508-CFTR)
T2 sequence (P13569 with tags, fused parts or gaps DEL508-508): as above
From the text: [formula] Measurement of delF508-CFTR Functional Activity in Primary Human Bronchial Epithelial Cells (HBECs) Using Multi-Transepithelial Clamp Circuit (MTECC-24) Assay
This assay measures the functional activity of the CFTR channel (Chloride ion transport) in patient derived primary human bronchial epithelial cells with forskolin activation and in the presence of the CFTR corrector/potentiator combo.
Primary human delF508-CFTR bronchial epithelial cells were purchased from Asterand and cultured according to previously established methods (Fulcher et al. (2005) Methods Mol Med 107: 183-206). Briefly, vendor supplied cells were rapidly defrosted and added to a T175 flask in 50 mL growth media (Lonza BEBM media with Lonza BEGM singlequots). Media was replaced after 24h and then cells were fed every other day until cells were 80-90% confluent, at which point cells were cryopreserved. These P1 vials were thawed at 37° C. as needed and added to T175 flasks in 50 mL growth media at 5×10^5 cells/flask. Media was replaced after 24h, and then cells were fed every other day until 80-90% confluent. Cells were lifted with 5 mL accutase at 37° C. for 5 minutes, centrifuged at 1000 rpms for 5 min (300 g), and resuspended in differentiation media (50% BEBM in DMEM, BEGM singlequots, all trans retinoic acid (5×10^−8M)). Cells were then counted and cell suspension was added to collagen coated inserts at 3×10^4 cells/insert in 0.15 mL with 0.5 mL differentiation media on the basolateral side.
Apical and basolateral media were replaced on alternate days, and following day 7 (or when confluent plus 2 days), air liquid interface was established for approximately two weeks by removal of apical media. One day prior to use on the MTECC24 system (EP-Devices, EP Design, Belgium), 0.15 mL of warmed (37° C.) PBS was added to the apical surface of the cultures and returned to humidifier (37° C., 5% CO2 incubator) for 30 min before aspirating the apical surface to remove any mucus.
Compound treatments were then prepared. Compound dilutions, typically a 10 point concentration response with 1 in 3 dilution steps, were made in 100% DMSO before dilution 1 in 1000 into differentiation medium with a final DMSO concentration of 0.1% or 0.2% for the study. Compound containing medium was then transferred into the wells of a 24 well plate at 0.5 mL per well and warmed for 30 min in a 37° C. incubator prior to transferring washed inserts into the compound containing plates. Cells were incubated in compound containing medium (basolateral only) for 24h prior to measurement in the MTECC24 system.
Following 24 hr treatment, compound dilutions were prepared again, diluted 1 in 1000 into 37° C. assay medium (F-12 Coon's modified, 20 mM HEPES pH7.4 with TRIS Base, No FCS or bicarbonate). Cells which were treated for 24h with test compound were then transferred into plates containing 0.75 mL compound treatment in assay medium (basolateral) and 0.25 mL of the compound containing assay medium was added to the apical surface. The plates were then transferred to the heated plate compartments of the MTECC24 system for 45 min prior to measurements (this can also be done in a non-CO2 37° C. humidified incubator). Basolateral temperature should not exceed 36.5° C. and apical temperature should be approximately 35.5° C.
Modulators were added sequentially as follows while the MTECC24 instrument recorded the equivalent short circuit current (Ieq):
Prior to dilution into F-12 medium the stocks are as follows:
Amiloride stock is 10 mM in H2O
Forskolin Stock is 10 mM in 100% DMSO
(S)-3-amino-6-methoxy-N-(3,3,3-trifluoro-2-hydroxy-2-methylpropyl)-5-(trifluoromethyl)picolinamide is 0.5 mM stock in 100% DMSO
INH-172 (4-[[4-Oxo-2-thioxo-3-[3-trifluoromethyl)phenyl]-5-thiazolidinylidene]methyl]benzoic acid) stock is 30 mM in 100% DMSO
The data was normalized using the median signal from wells treated with 0.1% DMSO as a baseline. […]

Structure (SMILES)	Emax [1] [%]	EC50 [1] [nM]	MTECC24 CFHBEC- Amax % [2] [%]	EC50 [2] [nM]
Nc1cccc(S(=O)(=O)Nc2ccc(C(F)(F)F)c(-c3ccc(F)cc3Cl)n2)n1 [Example 41, 6-amino-N-(6-(2-chloro-4-fluorophenyl)-5-(trifluoromethyl)pyridin-2-yl)pyridine-2-sulfonamide]	368	2340	88.8	13.9
Cc1ccc(F)cc1-c1nc(NS(=O)(=O)c2ccnc(N)c2)ccc1C(F)(F)F [Example 42, 2-amino-N-(6-(5-fluoro-2-methylphenyl)-5-(trifluoromethyl)pyridin-2-yl)pyridine-4-sulfonamide]	367	2260	72.4	39.9
Nc1cccc(S(=O)(=O)Nc2ccc(Cl)c(-c3cc(C(F)(F)F)ccc3Cl)n2)n1 [Example 43, 6-amino-N-(5-chloro-6-(2-chloro-5-(trifluoromethyl)phenyl)pyridin-2-yl)pyridine-2-sulfonamide]	361	2120	54.2	63.3
Cc1ccc(F)cc1-c1nc(NS(=O)(=O)c2ccc(N)nc2)ccc1Cl [Example 44, 6-amino-N-(5-chloro-6-(5-fluoro-2-methylphenyl)pyridin-2-yl)pyridine-3-sulfonamide]	346	1770	61.6	46
Nc1cccc(S(=O)(=O)Nc2ccc(Cl)c(-c3ccccc3C(F)(F)F)n2)n1 [Example 55, 6-amino-N-(5-chloro-6-(2-(trifluoromethyl)phenyl)pyridin-2-yl)pyridine-2-sulfonamide]	305	1700	86.7	15.5
Nc1cccc(S(=O)(=O)Nc2ccc(Cl)c(-c3ccc(F)cc3Cl)n2)n1 [Example 56, 6-amino-N-(5-chloro-6-(2-chloro-4-fluorophenyl)pyridin-2-yl)pyridine-2-sulfonamide]	301	2580	63.9	28.3
Cc1ccccc1-c1nc(NS(=O)(=O)c2ccnc(N)c2)ccc1Cl [Example 57, 2-amino-N-(5-chloro-6-(o-tolyl)pyridin-2-yl)pyridine-4-sulfonamide]	285	1080	72.9	118
Nc1cc(S(=O)(=O)Nc2ccc(Cl)c(-c3ccccc3C(F)(F)F)n2)ccn1 [Example 61, 2-amino-N-(5-chloro-6-(2-(trifluoromethyl)phenyl)pyridin-2-yl)pyridine-4-sulfonamide]	251	2620	74.0	103
COc1ccc(F)cc1-c1nc(NS(=O)(=O)c2cccc(N)n2)ccc1Cl [Example 62, 6-amino-N-(5-chloro-6-(5-fluoro-2-methoxyphenyl)pyridin-2-yl)pyridine-2-sulfonamide]	240	1730	46.1	51.2
Cc1c(C#N)cccc1-c1nc(NS(=O)(=O)c2cccc(N)n2)ccc1Cl [Example 67, 6-amino-N-(5-chloro-6-(3-cyano-2-methylphenyl)pyridin-2-yl)pyridine-2-sulfonamide]	214	1840	45.8	114
Nc1cccc(S(=O)(=O)Nc2ccc(Cl)c(-c3cccc(C(F)(F)F)c3)n2)n1 [Example 73, 6-amino-N-(5-chloro-6-(3-(trifluoromethyl)phenyl)pyridin-2-yl)pyridine-2-sulfonamide]	163	4240	64.2	134

Next, values leading:

Emax [1] [%]	EC50 [1] [nM]	MTECC24 CFHBEC- Amax % [2] [%]	EC50 [2] [nM]	Structure (SMILES)
158	2580	67.3	283	Cc1cccc(C)c1-c1nc(NS(=O)(=O)c2cccnc2N)ccc1Cl [Example 74, 2-amino-N-(5-chloro-6-(2,6-dimethylphenyl)pyridin-2-yl)pyridine-3-sulfonamide]
137	2280	50.7	96	Nc1cccc(S(=O)(=O)Nc2ccc(Cl)c(-c3c(F)cccc3F)n2)n1 [Example 80, 6-amino-N-(5-chloro-6-(2,6-difluorophenyl)pyridin-2-yl)pyridine-2-sulfonamide]
91.5	3860	35.7	39.9	Cc1ccc(OC(F)(F)F)cc1-c1nc(NS(=O)(=O)c2cccc(N)n2)ccc1Cl [Example 89, 6-amino-N-(5-chloro-6-(2-methyl-5-(trifluoromethoxy)phenyl)pyridin-2-yl)pyridine-2-sulfonamide]
577	3280	54.3	136	Cc1ccccc1-c1nc(NS(=O)(=O)c2cccc(N3CCC[C@@H](N)C3)n2)ccc1C(F)(F)F [Example 102, (R)-6-(3-aminopiperidin-1-yl)-N-(6-(o-tolyl)-5-(trifluoromethyl)pyridin-2-yl)pyridine-2-sulfonamide Hydrochloride]
370	2970	67.8	94.8	Cc1ccccc1-c1nc(NS(=O)(=O)c2cccc(N3CCC[C@H](N)C3)n2)ccc1C(F)(F)F [Example 103, (S)-6-(3-aminopiperidin-1-yl)-N-(6-(o-tolyl)-5-(trifluoromethyl)pyridin-2-yl)pyridine-2-sulfonamide Hydrochloride]
–	2140	73.4	24.5	Cc1ccccc1-c1nc(NS(=O)(=O)c2cccc(N[C@@H]3CCCNC3)n2)ccc1C(F)(F)F [Example 104, (R)-6-(piperidin-3-ylamino)-N-(6-(o-tolyl)-5-(trifluoromethyl)pyridin-2-yl)pyridine-2-sulfonamide Hydrochloride]
310	3190	58.1	222	Cc1ccccc1-c1nc(NS(=O)(=O)c2cccc(N[C@H]3CCCNC3)n2)ccc1C(F)(F)F [Example 105, (S)-6-(piperidin-3-ylamino)-N-(6-(o-tolyl)-5-(trifluoromethyl)pyridin-2-yl)pyridine-2-sulfonamide Hydrochloride]
912	2580	106.4	79.5	CO[C@H]1CCNC[C@H]1Nc1cccc(S(=O)(=O)Nc2ccc(C(F)(F)F)c(-c3ccccc3C)n2)n1 [Example 106, 6-(((3R,4S)-4-methoxypiperidin-3-yl)amino)-N-(6-(o-tolyl)-5-(trifluoromethyl)pyridin-2-yl)pyridine-2-sulfonamide Hydrochloride]
